# In patent US10676509B2, “Surface-immobilized antimicrobial peptoids” (Northwestern University, priority 2008, dated 2020):
# Starred links: 1 amine or outer side, 2 acyl side, 3 side chain; linkers in the order of their positions; H or OH if unused. Non-standard residues stand in square brackets, D forms with d. Residues, ends and D or L forms follow the SMILES beside them. N(1S-Me-propyl)Gly = CC[C@H](C)NCC(=O)O; Dopa = N[C@@H](Cc1ccc(O)c(O)c1)C(=O)O; X1 = O=C(CN(CC(F)(F)F)[*:1])[*:2]; Nspe = C[C@H](NCC(=O)O)c1ccccc1; Nlys = NCCCCNCC(=O)O; Nme = COCCNCC(=O)O
# Experiments:
# [1] = system: E. coli; assay: Antibacterial activity on surfaces: bacterial adhesion and membrane permeation (FITC) on modified TiO2 slides; type: cell-based, Escherichia coli; settings: for E. coli attachment to modified TiO2: 2 h exposure, compared with bare TiO2; for Percent FITC-stained bacteria: compared among surfaces
# Protocol: Bacterial experiments on modified TiO2 slides were performed by exposing the surfaces to an E. coli suspension for two hours and then centrifuging to remove unattached and weakly attached bacteria. The bacteria remaining on the surfaces were imaged in phase contrast for determination of cell numbers, and in fluorescence after staining with FITC to detect cells with compromised membranes. From these images, total number of adherent bacteria (from phase contrast) and percent of attached cells with compromised membranes (from FITC staining) were determined and are shown in Table 3.
# E. coli were streaked from frozen stocks onto Mueller-Hinton agar and incubated overnight at 37° C. A few colonies were then used to inoculate 25 ml of sterile Mueller-Hinton broth (MHB) and grown overnight at 37° C. TiO2-coated glass slides were modified with the polymers using the previously described procedure. Two-well chambers were clamped to the slides and sealed by injecting silastic resin, which was allowed to cure overnight. Slides were sterilized by exposure to UV light for 10 minutes. The bacterial suspension was concentrated by centrifugation and resuspended in PBS at a concentration of 5×10^7 CFU/ml; 2 ml of the E. coli suspension was added to each slide chamber. Slide chambers were covered and placed in a humidified incubator at 37° C.; after 2 h, nonadherent bacteria were removed by inverted centrifugation for 2 min at 30 rcf in sealed bags filled with PBS (Jensen et al., 2004). […] Slides were rinsed with PBS and imaged by confocal microscopy equipped with an inverted microscope (Leica TCS SP2). Phase contrast and fluorescent (488-nm band-pass filter for excitation of FITC) images were taken at identical locations to determine bacterial cell count and percent stained with FITC. The microscopy images were quantified using thresholding in ImageJ, and averages with standard deviations for at least nine images from one slide are reported. While slides were prepared in duplicate or triplicate and consistency was qualitatively confirmed between experimental samples, the reported counts and images were obtained from a single slide for each condition.
# [2] = system: P. aeruginosa; type: cell-based, Pseudomonas aeruginosa (ATCC 700829); settings: 16 h
# Protocol: (§1) The polymers were initially tested to determine their antibacterial properties in the solution state. Antibacterial activities of the compounds were tested using the methods described above for both Gram-negative and Gram-positive bacterial strains.
# (§2) The minimum inhibitory concentration (MIC) for each polymer was determined according to Clinical Laboratory Standards Institute (CLSI) broth microdilution protocols (M7-A6). The procedure explained previously was followed (Chongsiriwatana et al., supra); briefly, serial dilutions of the polymers were prepared in Mueller-Hinton broth (MHB) in 96-well microtiter plates and bacterial inoculum in MHB was added to each well (˜5.0×10^4 CFU/well). Optical density was monitored at 590 nm for 16 h at 35° C.
# [3] = system: S. epidermidis; type: cell-based, Staphylococcus epidermidis RP62A (ATCC 12228); settings: 16 h
# Protocol: as §1, §2
# [4] = system: B. subtilis; type: cell-based, Bacillus subtilis (ATCC 6633); settings: 16 h
# Protocol: as §1, §2
# [5] = system: E. coli, B. subtilis, S. epidermidis and P. aeruginosa; assay: Antibacterial activity in solution (MIC), statements for all bacterial strains; type: cell-based; settings: for Antibacterial activity in solution: tested concentrations
# Protocol: as §1, §2
# [6] = system: E. coli; type: cell-based, Escherichia coli (ATCC 35218); settings: 16 h
# Protocol: as §1, §2
Structure (SMILES),E. coli attachment to modified TiO2 [1],"Total number of FITC-stained bacteria relative to PMP110 surfaces ([1]; adhered E. coli, 2 h)",Percent FITC-stained bacteria ([1]; adhered E. coli),MIC P. aeruginosa [2],MIC S. epidermidis [3],MIC B. subtilis [4],MIC relative to AMP alone (times greater) [5],Antibacterial activity in solution [5],MIC E. coli [6]
COCCN(CC(=O)N(CCOC)CC(=O)N(CCOC)CC(=O)N(CCOC)CC(=O)N(CCOC)CC(=O)N(CCOC)CC(=O)N(CCOC)CC(=O)N(CCOC)CC(=O)N(CCOC)CC(=O)N(CCOC)CC(=O)N(CC(=O)N[C@@H](Cc1ccc(O)c(O)c1)C(=O)N[C@@H](CCCCN)C(=O)N[C@@H](Cc1ccc(O)c(O)c1)C(=O)N[C@@H](CCCCN)C(=O)N[C@@H](Cc1ccc(O)c(O)c1)C(N)=O)CC(F)(F)F)C(=O)CN(CCOC)C(=O)CN(CCOC)C(=O)CN(CCOC)C(=O)CN(CCOC)C(=O)CN(CCOC)C(=O)CN(CCOC)C(=O)CN(CCOC)C(=O)CN(CCOC)C(=O)CN(CCOC)C(=O)CN(CCOC)C(=O)CN(C(=O)CN(C(=O)CN(CCCCN)C(=O)CN(C(=O)CN(C(=O)CN(CCCCN)C(=O)[C@@H]1CCCN1C(=O)CN(C(=O)CN(CCCCN)C(=O)CN(C(=O)CN(C(=O)CNCCCCN)[C@@H](C)c1ccccc1)[C@@H](C)c1ccccc1)[C@@H](C)c1ccccc1)[C@@H](C)c1ccccc1)[C@@H](C)c1ccccc1)[C@@H](C)c1ccccc1)[C@@H](C)c1ccccc1 [PMP1-AMP] (H-[Nlys][Nspe][Nspe][Nlys][Nspe]P[Nlys][Nspe][Nspe][Nlys][Nspe][Nspe][Nme][Nme][Nme][Nme][Nme][Nme][Nme][Nme][Nme][Nme][Nme][Nme][Nme][Nme][Nme][Nme][Nme][Nme][Nme][Nme][X1][Dopa]K[Dopa]K[Dopa]-NH2),comparable to bare TiO2 surfaces,more than ten times greater,highest percentage of bacterial cells with compromised membranes,200 µM,3.1 µM,3.1 µM,2-4 times,active against all bacterial strains,50 µM
"CC[C@H](C)N(CC(=O)N(CCCCN)CC(=O)N(CC(=O)N(CC(=O)N(CCCCN)CC(=O)N(CC(=O)N(CC(=O)N(CCCCN)CC(=O)N(CC(=O)N(CC(=O)N(CCOC)CC(=O)N(CCOC)CC(=O)N(CCOC)CC(=O)N(CCOC)CC(=O)N(CCOC)CC(=O)N(CCOC)CC(=O)N(CCOC)CC(=O)N(CCOC)CC(=O)N(CCOC)CC(=O)N(CCOC)CC(=O)N(CCOC)CC(=O)N(CCOC)CC(=O)N(CCOC)CC(=O)N(CCOC)CC(=O)N(CCOC)CC(=O)N(CCOC)CC(=O)N(CCOC)CC(=O)N(CCOC)CC(=O)N(CCOC)CC(=O)N(CCOC)CC(=O)N(CC(=O)N[C@@H](Cc1ccc(O)c(O)c1)C(=O)N[C@@H](CCCCN)C(=O)N[C@@H](Cc1ccc(O)c(O)c1)C(=O)N[C@@H](CCCCN)C(=O)N[C@@H](Cc1ccc(O)c(O)c1)C(N)=O)CC(F)(F)F)[C@@H](C)CC)[C@@H](C)CC)[C@@H](C)CC)[C@@H](C)CC)[C@@H](C)CC)[C@@H](C)CC)C(=O)CN(C(=O)CNCCCCN)[C@@H](C)CC [PMP1-C, reference compound] (H-[Nlys][N(1S-Me-propyl)Gly][N(1S-Me-propyl)Gly][Nlys][N(1S-Me-propyl)Gly][N(1S-Me-propyl)Gly][Nlys][N(1S-Me-propyl)Gly][N(1S-Me-propyl)Gly][Nlys][N(1S-Me-propyl)Gly][N(1S-Me-propyl)Gly][Nme][Nme][Nme][Nme][Nme][Nme][Nme][Nme][Nme][Nme][Nme][Nme][Nme][Nme][Nme][Nme][Nme][Nme][Nme][Nme][X1][Dopa]K[Dopa]K[Dopa]-NH2)",much higher than PMP1-AMP and TiO2 surfaces,,low and comparable to the control TiO2 substrates,>100 µM,>100 µM,>100 µM,,not active at the tested concentrations,>100 µM
